Laboratory results reported in PMC6199744, “Development of Chemical Proteomics for the Folateome and Analysis of the Kinetoplastid Folateome” (ACS Infectious Diseases, 2018).
“And” between values parts separate entries of the source, which are not always exact repeats. Equal entries are not always repeated. Where two headings read alike, the source gives them in different places.

Test system: T. brucei lysate proteins
Format: binding, Trypanosoma brucei

NCCOCCOCC(=O)Nc1nc2ncc(CNc3ccc(C(=O)NC(CCC(=O)O)C(=O)O)cc3)nc2c(=O)[nH]1 (stereo not shown) [compound 6]
fold change vs vehicle control: 0.88 and 0.97 and 1.1 and 0.99 and 0.76 and 1
fold change (protein CZB00000046.1 HA-UBIQUITIN, vehicle control = 1): 0.9
fold change (protein CZT00018965.1 RETRO[…] (RHS) PROTEIN 1, vehicle control = 1): 1.49
fold change (protein RHS6A, vehicle control = 1): 1
fold change vs vehicle control (protein TB09.160.3270 ATP-DEPENDENT DEAD BOX HELICASE, PUTATIVE, vehicle control = 1): 1.28
fold change vs vehicle control (protein TB09.160.4200 60S ACIDIC RIBOSOMAL PROTEIN, PUTATIVE, vehicle control = 1): 0.88
fold change vs vehicle control (protein TB09.211.2630 60S RIBOSOMAL PROTEIN L23, PUTATIVE, vehicle control = 1): 0.96
fold change (protein TB09.211.4760 METACASPASE 5, PUTATIVE, vehicle control = 1): 0.82
fold change (protein TB11.01.1690 HY[…], CONSERVED, vehicle control = 1): 1.19
fold change vs vehicle control (protein TB11.01.2560 40S RIBOSOMAL PROTEIN SA, PUTATIVE, vehicle control = 1): 0.94
fold change vs vehicle control (protein TB11.01.3180 GUANINE NUCLEOTIDE-BINDING PROTEIN BETA SUBUNIT-LIKE PROTEIN, vehicle control = 1): 0.97
fold change (protein TB11.01.3560 VACUOLAR ATP SYNTHASE SUBUNIT B, PUTATIVE, vehicle control = 1): 0.93
fold change vs vehicle control (protein TB11.01.4370 HY[…], CONSERVED, vehicle control = 1): 0.96
fold change (protein TB11.01.5350 PROFILIN, vehicle control = 1): 0.97
fold change vs vehicle control (protein TB11.01.5910 DYNEIN IN[…] IC70, PUTATIVE, vehicle control = 1): 0.99
fold change (protein TB11.01.8590 RAB-LIKE 5, SMALL G PROTEIN, vehicle control = 1): 0.94
fold change (protein TB11.01.8740 PROTEIN PHOSPHATASE 4, PUTATIVE, vehicle control = 1): 0.8
fold change vs vehicle control (protein TB11.02.0730 METACASPASE, vehicle control = 1): 0.84
fold change vs vehicle control (protein TB11.02.1135 DYNEIN LIGHT CHAIN, PUTATIVE, vehicle control = 1): 1.14
fold change vs vehicle control (protein TB11.02.2040 HY[…], CONSERVED (ALBA-Domain Protein), vehicle control = 1): 1.34
fold change vs vehicle control (protein TB11.02.2420 HY[…], CONSERVED, vehicle control = 1): 0.9
fold change vs vehicle control (protein TB11.02.2510 GUANINE NUCLEOTIDE-BINDING BETA SUBUNIT-LIKE PROTEIN, vehicle control = 1): 1
fold change vs vehicle control (protein TB11.02.2640 DYNEIN IN[…] IC78, PUTATIVE, vehicle control = 1): 0.97
fold change (protein TB11.02.2960 MIT[…] PROTEIN, PUTATIVE, vehicle control = 1): 0.88
fold change vs vehicle control (protein TB11.03.0250 C[…], vehicle control = 1): 1.45
fold change (protein TB11.46.0009 HY[…], CONSERVED, vehicle control = 1): 0.99
fold change vs vehicle control (protein TB427TMP.01.1680 POLYUBIQUITIN, PUTATIVE, vehicle control = 1): 1.25
fold change (protein TB427TMP.01.1830 HY[…], CONSERVED, vehicle control = 1): 0.89
fold change vs vehicle control (protein TB427TMP.01.4280 HY[…], CONSERVED, vehicle control = 1): 0.84
fold change (protein TB427TMP.01.4750 […] 1 GAMMA, PUTATIVE, vehicle control = 1): 1
fold change vs vehicle control (protein TB427TMP.01.5000 HY[…], CONSERVED, vehicle control = 1): 0.91
fold change vs vehicle control (protein TB427TMP.01.5680 HY[…], CONSERVED, vehicle control = 1): 1.21
fold change (protein TB427TMP.01.5960 MIT[…] PROTEIN, PUTATIVE, vehicle control = 1): 0.82
fold change vs vehicle control (protein TB427TMP.01.6890 SMALL GTPASE, PUTATIVE, vehicle control = 1): 1.56
fold change (protein TB427TMP.01.7490 HY[…], CONSERVED, vehicle control = 1): 0.97
fold change (protein TB427TMP.01.8390 HY[…], CONSERVED, vehicle control = 1): 0.88
fold change (protein TB427TMP.02.0030 DYNEIN HEAVY CHAIN, PUTATIVE, vehicle control = 1): 1
fold change (protein TB427TMP.02.0760 DYNEIN HEAVY CHAIN, PUTATIVE, vehicle control = 1): 0.82
fold change (protein TB427TMP.02.1070 AMINOPEPTIDASE, PUTATIVE, vehicle control = 1): 1.1
fold change (protein TB427TMP.02.1460 HY[…], CONSERVED, vehicle control = 1): 0.98
fold change (protein TB427TMP.02.1860 HY[…], CONSERVED, vehicle control = 1): 0.97
fold change vs vehicle control (protein TB427TMP.02.2070 LONG-CHAIN-FATTY-ACID-COA LIGASE, PUTATIVE, vehicle control = 1): 0.99
fold change vs vehicle control (protein TB427TMP.02.2120 NUCLEOPORIN 48, vehicle control = 1): 1.18
fold change vs vehicle control (protein TB427TMP.02.2890 HY[…], CONSERVED, vehicle control = 1): 0.94
fold change (protein TB427TMP.02.4100 PRETRA[…], ALPHA SUBUNIT, PUTATIVE, vehicle control = 1): 1.3
fold change (protein TB427TMP.02.4550 HY[…], CONSERVED, vehicle control = 1): 0.88
fold change (protein TB427TMP.02.5660 HY[…], CONSERVED, vehicle control = 1): 0.95
fold change vs vehicle control (protein TB427TMP.02.5720 RIBONUCLEOSIDE-DIPHOSPHATE REDUCTASE LARGE CHAIN, vehicle control = 1): 0.88
fold change (protein TB427TMP.160.2370 HY[…], CONSERVED, vehicle control = 1): 0.93
fold change (protein TB427TMP.160.3630 CAMP-SPECIFIC PHOSPHODIESTERASE, vehicle control = 1): 0.97
fold change (protein TB427TMP.160.4240 […] PROTEIN-LIKE PROTEIN, vehicle control = 1): 1.2
fold change vs vehicle control (protein TB427TMP.160.4450 40S RIBOSOMAL PROTEIN S3, PUTATIVE, vehicle control = 1): 1.12
fold change vs vehicle control (protein TB427TMP.160.4560 ARGININE KINASE, vehicle control = 1): 1.65
fold change vs vehicle control (protein TB427TMP.160.4630 HY[…], CONSERVED, vehicle control = 1): 0.88
fold change (protein TB427TMP.160.4770 PROTEIN KINASE, PUTATIVE, vehicle control = 1): 0.84
fold change (protein TB427TMP.160.4910 FLAVOPROTEIN MONOOXYGENASE, PUTATIVE, vehicle control = 1): 0.97
fold change (protein TB427TMP.160.5670 HY[…], CONSERVED, vehicle control = 1): 0.99
fold change (protein TB427TMP.211.2460 HY[…], CONSERVED, vehicle control = 1): 0.99
fold change vs vehicle control (protein TB427TMP.211.2570 T-COMPLEX PROTEIN 1, ETA SUBUNIT, PUTATIVE, vehicle control = 1): 0.91
fold change vs vehicle control (protein TB427TMP.211.3140 HY[…], CONSERVED, vehicle control = 1): 1.47
fold change vs vehicle control (protein TB427TMP.211.3510 ATP-DEPENDENT DEAD/H RNA HELICASE, PUTATIVE, vehicle control = 1): 0.88
fold change vs vehicle control (protein TB427TMP.211.4170 HY[…], CONSERVED, vehicle control = 1): 0.88
fold change (protein TB427TMP.47.0011 HY[…], CONSERVED, vehicle control = 1): 0.93
fold change vs vehicle control (protein TB427TMP.55.0006 INTR[…] PROTEIN IFT88, vehicle control = 1): 0.95
fold change vs vehicle control (protein TB427TMP.57.0008 CALPAIN-LIKE PROTEIN, PUTATIVE, vehicle control = 1): 0.97
fold change (protein TB427TMP.V1.0370 HY[…], CONSERVED, vehicle control = 1): 0.88
fold change vs vehicle control (protein TB427.01.120 RETRO[…] SPOT (RHS) PROTEIN, PUTATIVE, vehicle control = 1): 0.88
fold change (protein TB427.01.2570 COATOMER BETA SUBUNIT, vehicle control = 1): 0.88
fold change (protein TB427.01.420 RETRO[…] SPOT (RHS) PROTEIN, PUTATIVE, vehicle control = 1): 0.97
fold change (protein TB427.01.5030 LEUCINE-RICH REPEAT PROTEIN (LRRP), PUTATIVE, vehicle control = 1): 0.93
fold change vs vehicle control (protein TB427.02.2970 MIT[…] PROTEIN, PUTATIVE, vehicle control = 1): 1.21
fold change vs vehicle control (protein TB427.02.6050 BETA PRIME COP PROTEIN, vehicle control = 1): 1.36
fold change vs vehicle control (protein TB427.03.1210 PROTEIN TRANSPORT PROTEIN SEC24, vehicle control = 1): 1.1
fold change vs vehicle control (protein TB427.03.3160 POLY(A) POLYMERASE, vehicle control = 1): 0.47
fold change vs vehicle control (protein TB427.03.4040 HY[…], CONSERVED (Ankyrinrepeat), vehicle control = 1): 2.65
fold change vs vehicle control (protein TB427.03.4750 AMINOPEPTIDASE, PUTATIVE, vehicle control = 1): 1.1
fold change (protein TB427.03.4910 SIGNAL PEPTIDE PEPTIDASE, PUTATIVE, vehicle control = 1): 1.22
fold change (protein TB427.04.1300 HY[…], CONSERVED, vehicle control = 1): 1.2
fold change vs vehicle control (protein TB427.04.1510 PHOSPHOLIPID-TRA[…], PUTATIVE, vehicle control = 1): 1
fold change (protein TB427.04.2340 HY[…], CONSERVED, vehicle control = 1): 0.92
fold change (protein TB427.04.310 HY[…], CONSERVED, vehicle control = 1): 0.6
fold change (protein TB427.04.420 PHOSPHATIDYLINOSITOL 3-KINASE (TOR2), vehicle control = 1): 0.71
fold change (protein TB427.04.450 COATOMER ALPHA SUBUNIT, PUTATIVE, vehicle control = 1): 0.86
fold change vs vehicle control (protein TB427.04.4870 AMINO ACID TRANSPORTER, PUTATIVE, vehicle control = 1): 1.1
fold change (protein TB427.04.5010 CALRETICULIN, PUTATIVE, vehicle control = 1): 1.53
fold change vs vehicle control (protein TB427.05.1700 R[…] A 28 KDA SUBUNIT, PUTATIVE, vehicle control = 1): 1.31
fold change vs vehicle control (protein TB427.05.3260 HY[…], CONSERVED, vehicle control = 1): 0.88
fold change vs vehicle control (protein TB427.05.4560 GUANINE DEAMINASE, PUTATIVE, vehicle control = 1): 0.93
fold change vs vehicle control (protein TB427.06.1070 HY[…], CONSERVED, vehicle control = 1): 0.94
fold change vs vehicle control (protein TB427.06.1500 ALKYL-DIHYDR[…] SYNTHASE, vehicle control = 1): 0.97
fold change (protein TB427.06.1800 PROTEIN PHOSPHATASE 2C, PUTATIVE, vehicle control = 1): 0.92
